Counter-ions that a name gives are not always drawn. Each block holds one compound with its values, some of them ahead of it.
Tests used:
[1] = Physical stability of Form 1 drug product vs. acetic acid solvate drug product; conditions: drug product
Description: The physical stabilities of Form 1 and lorlatinib acetic acid solvate as drug product were investigated under a variety of conditions.

[2] = Slurry experiments, thermodynamic stability of lorlatinib maleate hydrate (Form 2) in a variety of solvent systems; assay type: physicochemical
Method: The thermodynamic stability of Form 2 was further assessed in variety of solvent systems at temperatures of 5° C. to 40° C. as shown in Table 11. Suspensions of Form 2 were prepared under the indicated conditions and equilibrated for 2 weeks. Resultant solids were analyzed by PXRD. […] Formation of new materials in ethanol and methanol is believed to be a solvated form.

impurity (solid phase impurity), physical stability of drug product ([1]; 50° C./75% RH, 2 weeks): ~30% impurity
impurity (solid phase impurity), physical stability of drug product ([1]; 70° C./10% RH, 3 weeks): ~80% impurity
impurity (solid phase impurity), physical stability of drug product ([1]; 70° C./40% RH, 2 weeks): ~80% impurity
impurity (solid phase impurity), physical stability of drug product ([1]; 70° C./75% RH, 1 week): ~80% impurity
SMILES: CC(=O)O.C[C@H]1Oc2cc(cnc2N)-c2c(nn(C)c2C#N)CN(C)C(=O)c2ccc(F)cc21 [lorlatinib acetic acid solvate, reference compound]

Slurry output, solid form by PXRD ([2]; 1,4-dioxane, Aw 0, 5° C., 2 weeks): Form 2
Slurry output, solid form by PXRD ([2]; 1,4-dioxane, Aw 0, 40° C., 2 weeks): Form 2
Slurry output, solid form by PXRD ([2]; 1,4-dioxane, Aw 0, RT, 2 weeks): Form 2
Slurry output, solid form by PXRD ([2]; EtOAc, Aw 0, 5° C., 2 weeks): Form 2
Slurry output, solid form by PXRD ([2]; EtOAc, Aw 0, 40° C., 2 weeks): Form 2
Slurry output, solid form by PXRD ([2]; EtOAc, Aw 0, RT, 2 weeks): Form 2
Slurry output, solid form by PXRD ([2]; EtOAc/water, Aw 0.1, 5° C., 2 weeks): Form 2
Slurry output, solid form by PXRD ([2]; EtOAc/water, Aw 0.1, 40° C., 2 weeks): Form 2
Slurry output, solid form by PXRD ([2]; EtOAc/water, Aw 0.1, RT, 2 weeks): Form 2
Slurry output, solid form by PXRD ([2]; EtOAc/water, Aw 0.3, 5° C., 2 weeks): Form 2
Slurry output, solid form by PXRD ([2]; EtOAc/water, Aw 0.3, 40° C., 2 weeks): Form 2
Slurry output, solid form by PXRD ([2]; EtOAc/water, Aw 0.3, RT, 2 weeks): Form 2
Slurry output, solid form by PXRD ([2]; EtOAc/water, Aw 0.75, 5° C., 2 weeks): Form 2
Slurry output, solid form by PXRD ([2]; EtOAc/water, Aw 0.75, 40° C., 2 weeks): Form 2
Slurry output, solid form by PXRD ([2]; EtOAc/water, Aw 0.75, RT, 2 weeks): Form 2
Slurry output, solid form by PXRD ([2]; Ethanol, Aw 0, 5° C., 2 weeks): Form 2
Slurry output, solid form by PXRD ([2]; Ethanol, Aw 0, 40° C., 2 weeks): solvate
Slurry output, solid form by PXRD ([2]; MeOAc, Aw 0, 5° C., 2 weeks): Form 2
Slurry output, solid form by PXRD ([2]; MeOAc, Aw 0, 40° C., 2 weeks): Form 2
Slurry output, solid form by PXRD ([2]; MeOAc, Aw 0, RT, 2 weeks): Form 2
Slurry output, solid form by PXRD ([2]; TFE, Aw 0, 5° C., 2 weeks): Form 2
Slurry output, solid form by PXRD ([2]; TFE, Aw 0, 40° C., 2 weeks): amorphous
Slurry output, solid form by PXRD ([2]; TFE, Aw 0, RT, 2 weeks): Form 2
Slurry output, solid form by PXRD ([2]; acetone, Aw 0, 5° C., 2 weeks): Form 2
Slurry output, solid form by PXRD ([2]; acetone, Aw 0, 40° C., 2 weeks): Form 2
Slurry output, solid form by PXRD ([2]; acetone, Aw 0, RT, 2 weeks): Form 2
Slurry output, solid form by PXRD ([2]; acetone/water, Aw 0.1, 5° C., 2 weeks): Form 2
Slurry output, solid form by PXRD ([2]; acetone/water, Aw 0.1, 40° C., 2 weeks): Form 2
Slurry output, solid form by PXRD ([2]; acetone/water, Aw 0.1, RT, 2 weeks): Form 2
Slurry output, solid form by PXRD ([2]; acetone/water, Aw 0.3, 5° C., 2 weeks): Form 2
Slurry output, solid form by PXRD ([2]; acetone/water, Aw 0.3, 40° C., 2 weeks): Form 2
Slurry output, solid form by PXRD ([2]; acetone/water, Aw 0.3, RT, 2 weeks): Form 2
Slurry output, solid form by PXRD ([2]; acetone/water, Aw 0.75, 5° C., 2 weeks): Form 2
Slurry output, solid form by PXRD ([2]; acetone/water, Aw 0.75, 40° C., 2 weeks): Form 2
Slurry output, solid form by PXRD ([2]; acetone/water, Aw 0.75, RT, 2 weeks): Form 2
Slurry output, solid form by PXRD ([2]; acetone/water, Aw 0.9, 5° C., 2 weeks): Form 2
Slurry output, solid form by PXRD ([2]; acetone/water, Aw 0.9, RT, 2 weeks): Form 2
Slurry output, solid form by PXRD ([2]; acetonitrile, Aw 0, 5° C., 2 weeks): Form 2
Slurry output, solid form by PXRD ([2]; acetonitrile, Aw 0, 40° C., 2 weeks): Form 2
Slurry output, solid form by PXRD ([2]; acetonitrile, Aw 0, RT, 2 weeks): Form 2
Slurry output, solid form by PXRD ([2]; methanol, Aw 0, 5° C., 2 weeks): Form 2
Slurry output, solid form by PXRD ([2]; methanol/water, Aw 0.1, 5° C., 2 weeks): Form 2
Slurry output, solid form by PXRD ([2]; methanol/water, Aw 0.1, 40° C., 2 weeks): solvate
Slurry output, solid form by PXRD ([2]; methanol/water, Aw 0.1, RT, 2 weeks): Form 2
Slurry output, solid form by PXRD ([2]; methanol/water, Aw 0.3, 5° C., 2 weeks): Form 2
Slurry output, solid form by PXRD ([2]; methanol/water, Aw 0.3, 40° C., 2 weeks): solvate
Slurry output, solid form by PXRD ([2]; methanol/water, Aw 0.3, RT, 2 weeks): Form 2
Slurry output, solid form by PXRD ([2]; methanol/water, Aw 0.75, 5° C., 2 weeks): Form 2
Slurry output, solid form by PXRD ([2]; methanol/water, Aw 0.75, 40° C., 2 weeks): Form 2
Slurry output, solid form by PXRD ([2]; methanol/water, Aw 0.75, RT, 2 weeks): Form 2
Conversion to Form 1 in slurry (summary) ([2]; variety of solvent systems, 5° C. to 40° C., 2 weeks): No conversion to Form 1 was detected
Thermodynamic stability (summary) ([2]; wide range of water activities and solvent conditions): thermodynamically stable
SMILES: C[C@H]1Oc2cc(cnc2N)-c2c(nn(C)c2C#N)CN(C)C(=O)c2ccc(F)cc21 [lorlatinib maleate hydrate (Form 2), (10R)-7-amino-12-fluoro-2,10,16-trimethyl-15-oxo-10,15,16,17-tetrahydro-2H-8,4-(metheno)pyrazolo[4,3-h][2,5,11]benzoxadiazacyclotetradecine-3-carbonitrile (PF-06463922) Maleate Hydrate (Form 2)]

— US11078215B2, “Crystalline forms of lorlatinib maleate” (Pfizer Inc., priority 2016, dated 2021)
